Measured values published in PubChem BioAssay (NCI).
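A five-concentration, 48-hour dose response in 96-well plates underlies each endpoint, interpolated linearly between surrounding concentrations. TGI denotes the concentration required for complete inhibition of growth.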

Experiments:
Assay in all cases: growth of human tumour cells (NCI), 48 h
[1] = test system: RPMI-8226 leukemia
[2] = test system: CAKI-1 renal
[3] = test system: HT29 colon
[4] = test system: OVCAR-5 ovarian
[5] = test system: HS 578T breast
[6] = test system: HOP-62 NSCLC
[7] = test system: UO-31 renal
[8] = test system: OVCAR-4 ovarian
[9] = test system: 786-0 renal
[10] = test system: NCI-H460 lung

| SMILES | TGI [1] | TGI [2] | TGI [3] | TGI [4] | TGI [5] | TGI [6] | TGI [7] | TGI [8] | TGI [9] | TGI [10] |
| --- | --- | --- | --- | --- | --- | --- | --- | --- | --- | --- |
| CCN1CCC(O)(/C=C/c2ccc(Cl)c(Cl)c2)C(C(=O)/C=C/c2ccc(Cl)c(Cl)c2)C1 (stereo not given) | > 100 µM | 3.21 µM | 1.82 µM | 2.52 µM | 2.42 µM | 2.48 µM | 2.3 µM | 2.21 µM | 2.7 µM | 2.02 µM |
| COc1cc([C@@H]2c3cc4c(cc3[C@H](OC3OC5COC(C(C)C)OC5C(O)C3O)C3COC(=O)[C@@H]32)OCO4)cc(OC)c1OC (stereo not given in full) | 48.8 µM | 17.5 µM | 7.11 µM | > 73.8 µM | > 30.9 µM | 25.4 µM | 42.1 µM | > 100 µM | 12.5 µM | 7.18 µM |
| CN1CN(c2ccccc2)C2(CCN(C(=O)OC(C)(C)C)CC2)C1=O | > 100 µM | > 100 µM | > 100 µM | > 100 µM | > 100 µM | > 100 µM | > 100 µM | > 100 µM | > 100 µM | > 100 µM |
| CN(C)CC(O)CNC(=O)Nc1ccccc1 (stereo not given) | > 100 µM | > 100 µM | > 100 µM | > 100 µM | > 100 µM | > 100 µM | > 100 µM | > 100 µM | > 100 µM | > 100 µM |
| COc1cc(/C=[N+](\[O-])c2ccccc2Cl)ccc1OC(=S)S | > 100 µM | > 100 µM | > 100 µM | > 100 µM | > 100 µM | > 100 µM | > 100 µM | 27.8 µM | > 100 µM | > 100 µM |
| C=C1C(O)C2OC(=O)C(=C)C2C(OC(=O)/C(C)=C/C)CC2(C)OC2C2OC12 (stereo not given) | 7.72 µM | 26.9 µM | 33.7 µM | 83.7 µM | > 100 µM | > 100 µM | 81.3 µM | > 100 µM | 42.5 µM | 91.6 µM |
| O=C1C(Nc2ccc(S(=O)(=O)Nc3cnc4ccccc4n3)cc2)=CC(=Nc2ccc(S(=O)(=O)Nc3cnc4ccccc4n3)cc2)c2ccccc21 | > 77.8 µM | 31.2 µM | 36.3 µM | 30.8 µM | > 100 µM | 34.8 µM | 30.4 µM | 47.2 µM | 31.6 µM | 31.7 µM |
| COC(=O)c1cc(NC(=O)Cn2c3ccccc3c3ccccc32)cn1C | 75 µM | > 100 µM | > 100 µM | > 100 µM | 42.4 µM | 50.6 µM | > 100 µM | 74.9 µM | 72.2 µM | > 100 µM |
| COc1cc2c(cc1OC)C/C(=N\O)c1cc(OC)c(OC)cc1/C=C\2 | 66.9 µM | > 29.4 µM | 15.4 µM | > 55.3 µM | 15.1 µM | > 27 µM | > 69.7 µM | > 100 µM | > 100 µM | > 29.4 µM |
| CC(=O)OC1CC[C@@]2(C)C(=CC[C@@H]3[C@@H]2CC[C@]2(C)Nc4c(cnn4-c4ccc(F)cc4)C[C@@H]32)C1 (stereo not given in full) | 28.3 µM | 42.8 µM | > 100 µM | > 100 µM | > 100 µM | 17.8 µM | > 100 µM | > 100 µM | > 59.2 µM | > 100 µM |
| CCc1c[n+]2c(cc1C1=CN3c4ccccc4[C@]45CCN6C/C(=C/CO)[C@H](C[C@H]64)[C@@H]([C@@H]1O)[C@H]35)-c1[nH]c3ccccc3c1CC2 | > 50 µM | > 50 µM | > 50 µM | > 50 µM | > 50 µM | > 50 µM | > 50 µM | > 50 µM | > 50 µM | > 50 µM |
| Cn1c(SCc2ccc([N+](=O)[O-])cc2)nnc1C12CC3CC(CC(C3)C1)C2 | > 10 µM | > 10 µM | > 10 µM | > 10 µM | > 10 µM | > 10 µM | > 10 µM | > 10 µM | > 10 µM | > 10 µM |
| O=C1/C(=C/Cc2ccco2)N=C(c2ccccc2)N1c1nc2ccc(Sc3ccccc3)cc2[nH]1 | > 100 µM | > 100 µM | 73.6 µM | 96.9 µM | 50.7 µM | > 100 µM | 50.6 µM | 86.3 µM | 38.5 µM | > 100 µM |
| CCOC(=O)C(NS(=O)(=O)c1ccccc1)(C(F)(F)F)P(=O)(OCC(C)C)OCC(C)C (stereo not given) | > 100 µM | > 100 µM | > 100 µM | > 100 µM | > 100 µM | > 100 µM | > 100 µM | > 100 µM | > 100 µM | > 100 µM |
| O=C(NNC(=O)c1ccccc1O)c1cccs1 | > 100 µM | > 100 µM | > 100 µM | > 100 µM | > 100 µM | > 100 µM | > 100 µM | > 100 µM | > 100 µM | > 100 µM |
| CCOP(=O)(OCC)C(Cc1cn(S(=O)(=O)c2ccc(C)cc2)cn1)C(=O)O (stereo not given) | > 100 µM | > 100 µM | > 100 µM | > 100 µM | > 100 µM | > 100 µM | > 100 µM | > 100 µM | > 100 µM | > 100 µM |

| SMILES | TGI [1] | TGI [2] | TGI [3] | TGI [4] | TGI [5] | TGI [6] | TGI [7] | TGI [8] | TGI [9] | TGI [10] |
| --- | --- | --- | --- | --- | --- | --- | --- | --- | --- | --- |
| CC(=O)[C@H]1CC[C@@H]2[C@]1(C)CC=C1[C@]23C=C[C@]2(C[C@@H](O)CC[C@]12C)C(C(=O)O)C3C(=O)O (stereo not given in full) | > 100 µM | > 100 µM | > 100 µM | > 100 µM | > 100 µM | > 100 µM | > 100 µM | > 100 µM | > 100 µM | > 100 µM |
| Cn1c(=Nc2ccccc2[N+](=O)[O-])sc2ccccc21 | > 100 µM | > 100 µM | > 100 µM | > 100 µM | > 100 µM | 48.3 µM | > 100 µM | 86.9 µM | > 100 µM | > 100 µM |
| C#CCn1c(=O)c2cc(OC)c(OC)cc2n(CC#C)c1=O | > 10 µM | > 10 µM | > 10 µM | > 10 µM | > 10 µM | > 10 µM | > 10 µM | > 10 µM | > 10 µM | > 10 µM |
| COc1ccc(C2=Nn3c(nc4sc5c(c4c3=O)CCCC5)SC2)cc1 | > 100 µM | > 100 µM | > 100 µM | > 100 µM | > 100 µM | > 100 µM | > 100 µM | > 100 µM | > 100 µM | > 100 µM |
| Nc1ccc(Oc2ccc(C34CC5CC(C3)CC(c3ccc(Oc6ccc(N)c(O)c6)cc3)(C5)C4)cc2)cc1O | > 100 µM | 3.57 µM | 5.16 µM | 4.3 µM | 4.97 µM | 12 µM | 3.23 µM | 5.28 µM | > 46 µM | 3.37 µM |
| COC(=O)C1=C(C(=O)OC)SC2(S1)C(C(=O)OC)=C(C(=O)OC)Sc1c2ssc1=O | 5.68 µM | 2.93 µM | 1.78 µM | 5.02 µM | 13.4 µM | 4.53 µM | 3.15 µM | 2.79 µM | 1.21 µM | 8.76 µM |
| O=c1oc2c(Cl)cc(Cl)cc2cc1-c1cn2c(n1)sc1ccccc12 | 89.1 µM | > 100 µM | > 100 µM | > 100 µM | > 100 µM | > 100 µM | > 100 µM | > 100 µM | > 100 µM | > 100 µM |
| C1=Nc2ccc(cc2)-c2ccc(cc2)N=Cc2ccccc2OCc2cccc(n2)COc2ccccc21 | > 100 µM | > 100 µM | > 100 µM | > 100 µM | 47 µM | 20.1 µM | > 100 µM | > 100 µM | 33.1 µM | > 100 µM |
| O=[N+]([O-])c1cc(-c2ccc([As](=O)(O)O)cc2)ccc1[As](=O)(O)O | > 100 µM | > 100 µM | > 100 µM | > 100 µM | > 100 µM | > 100 µM | > 100 µM | > 100 µM | > 100 µM | > 100 µM |
| Cc1[nH]c(-c2ccccc2)c(O)c1C(=O)OC1CC(C)CCC1C(C)C (stereo not given) | 54.9 µM | 32.2 µM | 27.5 µM | 27.2 µM | 39 µM | 28.6 µM | 26 µM | 27.4 µM | 28.6 µM | 28.6 µM |
| O=S1(=O)OCCOS(=O)(=O)C1C1c2ccccc2-c2ccccc21 | > 100 µM | 98.5 µM | > 100 µM | > 100 µM | > 100 µM | > 100 µM | 93.2 µM | 52.4 µM | > 100 µM | 33.7 µM |
| O=C(NC1CCCCC1)N1CCNC1=S | > 100 µM | > 100 µM | > 100 µM | > 100 µM | > 100 µM | > 100 µM | > 100 µM | > 100 µM | > 100 µM | > 100 µM |
| Nc1nc(Cl)cc(Oc2ccc(Cl)cc2)n1 | > 100 µM | > 100 µM | > 100 µM | > 100 µM | > 100 µM | > 100 µM | > 100 µM | > 100 µM | > 100 µM | > 100 µM |
| CC(C)(C)c1ccc(OCCOc2ccc(C(C)(C)C)cc2NC=O)c(NC=O)c1 | 13.6 µM | > 67.7 µM | 7.32 µM | 75.5 µM | 42.8 µM | 28 µM | 30.9 µM | 54.2 µM | 37.8 µM | 34.3 µM |
| c1ccc(C(OCCN2CC3CCC(C2)N3)c2ccccc2)cc1 | > 100 µM | > 100 µM | > 100 µM | > 100 µM | > 100 µM | > 100 µM | > 100 µM | > 100 µM | > 100 µM | > 100 µM |
